# Counter-ions that a name gives are not always drawn.
# Tested on: subjects aged 18-65 years with a HOMA(-IR) score between 2.5 and 3.5 (insulin resistance)
# Experiment: Reduction in HOMA-IR after 28 days of (non-)butyrate-producing bacteria with or without (non-)insulin-sensitizing agents (Experimental Example 1)
# Format: in vivo, human
# Set-up: key: Non-measurable: the first rank describes the lowest effect; Very low: very low; Low: low; Low/medium: low/medium; Medium: medium; High: high; Very high: the last rank describes the highest effect
# Settings: supplement alone, bacterium placebo
# From the text: The term ‘insulin resistance’ is well known by the skilled person. Within this disclosure, the term encompasses all conditions diagnosed as ‘insulin resistance’ by an (authorized) medical practitioner. The term ‘insulin resistance’ as used herein preferably refers to peripheral insulin resistance and/or hepatic insulin resistance. Insulin resistance may be diagnosed, for example, by the gold standard that is the “hyperinsulinemic euglycemic clamp” (DeFronzo R A, Tobin J D, Andres R, Am J Physiol. 1979 September; 237(3): E214-23). This method measures the amount of glucose necessary to compensate for an increased insulin level without causing hypoglycemia. The procedure may take two hours and typically involves the following steps: Through a peripheral vein, insulin is infused at 10-120 mU per m^2 per minute. In order to compensate for the insulin infusion, glucose 20% is infused to maintain blood sugar levels between 5 and 5.5 mmol/L. The rate of glucose infusion is determined by checking the blood sugar levels every five to ten minutes (Muniyappa R, Lee S, Chen H, Quon M J, January 2008, American Journal of Physiology. Endocrinology and Metabolism. 294 (1): E15-26). […] The homeostatic model assessment for insulin resistance (HOMA or HOMA-IR) is an alternative method used to determine and quantify insulin resistance in a fasting steady-state condition, and correlates reasonably with the golden standard (See e.g., Matthews D R, Hosker J P, Rudenski A S, Naylor B A, Treacher D F, Turner R C (1985). Diabetologia. 28 (7): 412-9. Doi:10.1007/BF00280883. PMID 3899825; and/or A. S. Rudenski; D. R. Matthews; J. C. Levy; R. C. Turner (1991) Metabolism. 40 (9): 908-917). […] The HOMA(-IR) value can be calculated by the following equation: […]
# Mixed male/female subjects aged 18-65 years with a HOMA(-IR) score between 2.5 and 3.5, thus indicating insulin resistance, are included in the study. The HOMA-IR can be determined as described herein elsewhere. The HOMA(-IR) is measured at baseline and after 28 days. […]
row,Compound,reduction in HOMA-IR value
1,chromium(III) picolinate,Very low
2,"CN(C)C(=N)NC(=N)N [Metformin, 1,1-dimethylbiguanide hydrochloride, reference compound]",Low/medium
3,"OC[C@@H](O)[C@@H](O)[C@H](O)[C@@H](O)CO [Sorbitol, D-glucitol]",Low/medium

# From US20240269197A1, “INSULIN-SENSITIZING AGENT AND BUTYRATE-PRODUCING BACTERIUM” (priority 2021, published 2024)
